Experimental data from US10058587B2, “Peptide composition for cancer treatment by inhibiting TRPV6 calcium channel activity” (priority 2008, dated 2018).
Where two headings read alike, the source gives them in different places. Bridges are numbered along the chain shown (N, C = ends). Where no end group is shown, it is not given here.

Key:
[1] = Physiological effects after i.v. injection into CD1 mice (blood pressure, heart rate, neurological/behavioral); format: in vivo
Method: (§1) After in vivo i.v. injection into CD1 mice, SorC13 caused a small spike (approximately 25%) in blood pressure in the first 15 min which disappeared by 1 hour.

[2] = Degradation rate in human plasma (HPLC); format: in vitro ADME
Method: (§2) Rat plasma was obtained from blood taken from sacrificed rats (Sprague-Dawley) and placed into heparinized glass vials to prevent clotting. Whole blood was centrifuged at 8000×g for 5 minutes to spin down the cells leaving the plasma as supernatant. Human whole blood samples from healthy humans were taken in lithium-heparinized vacuum tubes. The samples were placed into 2.0 mL microcentrifuge tubes and centrifuged at 8000×g for 5 min. The plasma was carefully separated from red blood cells and used immediately.
(§3) Determination of degradation rate of the C-peptides was done by measuring, with the HPLC protocol, the amount of either SorC13 or SorC27 in dosed plasma samples, after time. Sample tubes (500 uL) containing 2 uL of 2 mM Pefabloc were previously prepared for sample delivery SorC13 (1.0 mg) or SorC27 (2.0 mg) were dissolved in 1.0 mL of fresh plasma (37° C.) and placed in an incubating water bath at 37° C. A sample (100 uL) was taken immediately and quenched in sample tubes containing 2 uL of 2 mM Pefabloc, mixed vigorously and immediately frozen at −80° C. This initial sample represented time zero for the run. At successive time intervals of 5 minutes, 100 uL samples were withdrawn, quenched in Pefabloc, mixed, and frozen at −80° C. until analysis.
(§4) The rat plasma degradation rate was determined for the plasma from three different rats, while the rate of degradation in human plasma used six separate plasma samples. The data used were the means (±SEM) and were fitted to a simple one-phase exponential decay model to determine the half-life of the two peptides. This also allowed the calculation of a static degradation rate. FIG. 11 is illustrative of the rate at which SorC27 was degraded in human plasma.

[3] = Tissue distribution of Cy5.5-labeled peptides by optical imaging; format: in vivo, CD1 mice; settings: Cy5.5-tagged peptide
Excerpt: SorC13 and SorC27 were labeled with the near-infrared probe, Cy5.5. SorC13 was labeled at lysine-1 and lysine-8 with the infrared fluorescent probe cy5.5 through reaction with Cy5.5 NHS ester-activated process. SorC27 was labeled at the single cysteine thiol with Cy5.5 maleamide-activated reaction. The labeled peptides were purified with a combination of size exclusion chromatography and HPLC. The label, Cy5.5, fluoresces in the infra-red region after excitation with a scanning laser. The low energy laser is able to penetrate the animal to about 1 cm and, thus, by scanning prone and supine positions, the presence of the tagged peptides can be quantified in three dimensions.
Cy5.5-labeled peptides were intravenously injected into CD1 mice (4 for each compound) at 100 ug per animal in 100 uL, and animals were imaged live using an optical imaging system, Optix eXplorer (GE Healthcare Systems) at different time points (30 min, 90 min, 4 h). […] The bio-distribution of the labeled peptides in different organs and tissues were visualized and relatively quantified by optical imaging analysis. This protocol allows for visualization of the location of the labeled peptides and how the location changes over time. […] Nodes that accumulated the labeled peptides are indicated by line 1 (superfacial cervical nodes), line 4 (axillary nodes), line 5 (brachial nodes), line 8 (mesenteric nodes) and line 9 (inguinal nodes). FIGS. 8, 9 and 10 show the amounts of labeled peptides in various organs ex vivo.

[4] = molecular target: T1, human TRPV6b (Homo sapiens, UniProt Q9H1D0); assay: Whole-cell patch clamp of calcium store operated current (ISOC) through TRPV6 in transfected LnCaP cells; format: cell-based
T1 construct: expressed in transfected cells; host or cells: LnCaP (ATCC CRL-1740), human lymph node prostate cancer cells
T1 sequence (Q9H1D0 41-765 limits assumed): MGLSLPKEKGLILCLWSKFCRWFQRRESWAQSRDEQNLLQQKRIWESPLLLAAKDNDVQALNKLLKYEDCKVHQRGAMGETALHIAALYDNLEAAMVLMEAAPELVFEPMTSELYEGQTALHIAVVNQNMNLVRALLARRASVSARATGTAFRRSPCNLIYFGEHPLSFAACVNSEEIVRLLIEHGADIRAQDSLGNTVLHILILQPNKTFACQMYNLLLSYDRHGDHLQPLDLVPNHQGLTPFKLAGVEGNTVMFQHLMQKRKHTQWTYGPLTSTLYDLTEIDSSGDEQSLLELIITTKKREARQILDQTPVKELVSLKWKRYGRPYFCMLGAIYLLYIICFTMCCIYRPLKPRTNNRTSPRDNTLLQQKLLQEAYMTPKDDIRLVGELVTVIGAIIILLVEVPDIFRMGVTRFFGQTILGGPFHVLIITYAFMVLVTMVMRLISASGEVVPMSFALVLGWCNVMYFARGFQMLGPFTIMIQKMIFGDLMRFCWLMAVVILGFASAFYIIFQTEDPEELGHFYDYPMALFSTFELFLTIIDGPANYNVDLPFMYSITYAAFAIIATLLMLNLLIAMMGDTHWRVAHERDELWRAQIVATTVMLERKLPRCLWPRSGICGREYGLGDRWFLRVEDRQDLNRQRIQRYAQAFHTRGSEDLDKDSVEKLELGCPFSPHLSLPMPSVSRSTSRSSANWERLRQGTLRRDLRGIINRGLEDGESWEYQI
Method: An expression vector (pCAGS-IRES-hTRPV6b) (Bodding et al. 2003) containing the nucleotide code for human TRPV6b was transfected into and expressed by human lymph node prostate cancer (LnCaP, ATCC CRL-1740). Patch clamping with whole-cell current acquisition was used to measure the calcium current through this channel. Cells were treated and calcium store operated current (ISOC) was measured with either SorC13 (n=90) or SorC27 (n=30) in a closed-circuit perfusion for 3 min at each of cumulative concentrations of 0 (baseline), 100 nM, 500 nM 1 uM, 30 uM and 100 uM. Washout perfusion was done at 2 mL/min for 3 min. […] Further, both C-peptides are very strong inhibitors of calcium current through the TRPV6 channel with inhibition constants in the 100 nM range.

[5] = Solubility (aqueous)
[6] = Repeated dose toxicity study; format: in vivo, NOD/SCID mice; settings: 400 mg/kg, daily i.p. injection for 12 days
Method: In order to investigate repeated dose toxicity, SorC27 at 400 mg/kg formulated in saline was injected (i.p.) into NOD/SCID mice every day for 12 days. The animals were observed cage-side each day and examined at the end of the experimental period.

[7] = Clearance route in iv mice; settings: i.v.
[8] = Storage stability of solid and aqueous solution; format: physicochemical
Method: Additionally, the peptides have greater shelf-life stability and solution stability due to the presence of fewer sensitive disulfide bonds (soricidin has 3 disulfide bonds). The peptides of the invention optionally have no disulfide bonds. An absence of disulfide bonds provides a very long shelflife during storage under minimal refrigeration or at room temperature as a solid. Additionally when the peptides of the invention with no disulfide bonds are dissolved in water, cleavage of disulfide bonds cannot occur. […] The formation of inter-peptide S—S bonds also results in precipitation of soricidin. The peptides of the invention, such as SorC13 and SorC27, are typically stable in aqueous solution at 8° C. for at least 3 weeks with no change in purity as measured by HPLC.
“Very stable” in the above table means that there was no observable degradation of the solid peptides over 6 months. As a solution in sterile water, the peptides are typically stable for at least 3 weeks at 8° C. and at −20° C., are expected to be stable more than 1 year.

[9] = Degradation rate in rat plasma (HPLC); format: in vitro ADME
Method: as §2, §3, §4

[10] = Single dose acute intravenous bolus toxicity study with 5-day observation; format: in vivo, CD-1 mice
Method: A single dose acute intravenous bolus injection toxicity study followed by a 5-day observation period in CD-1 mice was performed as described below. Three doses of each of SorC13 and SorC27 were used (10, 100 and 500 mg/Kg). Daily cage-side exams for 5 days with hourly exams for the first 4 hrs post injection. As part of the analysis the following assessments were made: body weights prior to dosing and at termination; all animals were necropsied (including preparation of bone marrow smears); organ weights were taken of all animals.
as §1

[11] = tested on: mealworm larvae; assay: Mealworm larva paralytic bioassay; format: in vivo; settings: for larvae paralyzed: 20 nmole/100 mg mass
Excerpt: To show this, the mealworm larva paralytic bioassay reported previously (U.S. Pat. No. 7,119,168) was used. Animals from a mealworm colony were arbitrarily selected and placed in groups (treatment and control). The animals were weighed to allow calculation of equivalent doses. The treatment was with either SorC13 or SorC27 dissolved in buffered insect Ringer's solution. The control was injection was an equivalent volume of insect Ringer's (NaCl; 10.40 g; KCl, 0.32 g; CaCl2, 0.48 g; NaHCO3, 0.32 g dissolved in 1 L of Millipore sterile water, pH 7.4). Peptide formulations were: SorC27 solutions, prepared at 1.0 mg/100 uL insect Ringer's (10 ug/uL, […], MW=2957); and SorC13, prepared at 0.5 mg/100 uL (5 ug/uL, […], MW=1566). The doses were 50 ug SorC27 per 100 mg of animal mass and 25 ug SorC13 per 100 mg of animal mass. Peptide solutions and control saline were injected dorsally at the fourth segment from the head, just under the integumen. Animals were gently ‘tail tweaked’ with forceps to trigger the escape reflex reaction and scored on time-to-effect, duration of effect and intensity of effect.

[12] = pI; format: physicochemical; settings: measured
[13] = tested on: mealworm larvae; assay: Mealworm larva paralytic bioassay; format: in vivo
[14] = single i.v. 10, 100 and 500 mg/kg

In the case of KEFLHPSKVDLPR [SorC13, KEFLHPSKVDLPR], the neurological/behavioral changes ([1]; i.v., over 72 hours) is reported as “no neurological/behavioral changes”, the “spike in blood pressure in the first 15 min” value ([1]; i.v., disappeared by 1 hour) is reported as “approximately 25%” and the “BP spike @ 15 min” value ([1]; mice @ 5 mg/kg, stabilizes by 1 hr) is reported as 15% BP spike, @. The “binding to plasma proteins” value ([2]; human plasma) was “doesn't”, the half-life ([2]; human, plasma, 37° C.) was 56.6 min and the “detectable in tissues after perfusion” value ([3]; 24 hours) was “still detectable”. The tissue localization ([3]; i.v. 100 ug) was “localize predominantly in lymph nodes, lung, liver and kidney”, the IC50 [4] was 100 nM and the Kd [4] was 100 nM. For the same sequence, the solubility ([5]; aqueous) was over 200 mg/mL, the “Repeated dose in NOD/SCID mice: body weight” value [6] was “No loss of body” and the “Repeated dose in NOD/SCID mice: toxic effects” value [6] was “controls, no toxic”. For the same sequence, the “Clearance route in iv mice @ 5 mg/kg” value [7] was “Rapid via kidney”, the “Stability in aqueous solution @ −20° C.” value [8] was “Very stable” and the “Stability solid @ Room Temp.” value [8] was “Very stable”. The “Stability solid @ −20° C.” value [8] was “Very stable”, the half-life ([9]; Sprague-Dawley, rat, plasma, 37° C.) was 58 min and the “binding to plasma proteins” value ([9]; rat plasma) was “doesn't”. The “Maximum Tolerated Dose in CD-1 mice by single i.v. dose” value ([10]; 10, 100 and 500 mg/kg doses) was “No toxic effects”, the “adverse events over 5-day post-injection observation period” value [10, 14] was “no adverse events” and the “necropsy changes in major organ systems” value [10, 14] was “no significant changes in all major organ systems”.
For “DCSQDCAACSILARPAELNTETCILECEGKLSSNDTEGGLCKEFLHPSKVDLPR (disulfide 2-23, 6-27, 9-41) [Sor54, soricidin, reference compound]”, the “binding to plasma proteins” value ([2]; human plasma) was “binds to”, the half-life ([2]; human plasma) was over 1800 min and the solubility [5] was under 20 mg/mL. For the same sequence, the larvae paralyzed ([11]; time 0 min) was 4/4, the larvae paralyzed ([11]; time 2 min) was 4/4 and the larvae paralyzed ([11]; time 30 min) was 4/4. The “paralysis in the mealworm larva model” value ([11]; molar equivalent doses (20 nanomole/100 mg larva)) was “profoundly paralytic”, the pI [12] was 4.3 (measured) and the “Stability in aqueous solution @ −20° C.” value [8] was “stable”. For the same sequence, the “Stability solid @ Room Temp.” value [8] was “unstable”, the “Stability solid @ −20° C.” value [8] was “stable” and the “binding to plasma proteins” value ([9]; rat plasma) was “binds to”. The half-life ([9]; rat plasma) was over 1800 min and the “Physiol. effects in vivo (mealworm larvae); 5 mg/kg” value [13] was “Paralytic”.
